Test results reported in ChEMBL document CHEMBL4177616, “Potent anti-melanogenic activity and favorable toxicity profile of selected 4-phenyl hydroxycoumarins in the zebrafish model and the computational molecular modeling studies” (Bioorg Med Chem, 2017).
Active and inactive are the calls of the source. The rule behind the calls is not given here.

Tests used:
[1] = system: Melanocyte; experiment: Anti-melanogenic activity in wild type zebrafish embryo melanocytes assessed as decrease in pigmentation at 25 ug/ml treated for 72 hrs post fertilization starting from 6 to 24 hrs post fertilization; format: functional, cell-based; details: Danio rerio
[2] = system: Melanocyte; experiment: Cytotoxicity against wild type zebrafish embryo melanocytes assessed as change in morphology at to 25 ug/ml treated for 72 hrs post fertilization starting from 6 to 24 hrs post fertilization; format: cell-based, Danio rerio
[3] = system: Melanocyte; experiment: Cytotoxicity against wild type zebrafish embryo melanocytes assessed as size of melanocyte at to 25 ug/ml treated for 72 hrs post fertilization starting from 6 to 24 hrs post fertilization; format: cell-based, Danio rerio
[4] = system: Melanocyte; experiment: Cytotoxicity against wild type zebrafish embryo melanocytes assessed as number of melanocyte at 25 ug/ml treated for 72 hrs post fertilization starting from 6 to 24 hrs post fertilization; format: cell-based, Danio rerio
[5] = organism: Danio rerio; experiment: Toxicity in wild type zebrafish embryos assessed as normal embryo at 15 ug/ml treated for 96 hrs post fertilization starting from 6 hrs post fertilization by inverted microscopic analysis relative to control; format: organism-based; details: in vivo
[6] = organism: Danio rerio; experiment: Toxicity in wild type zebrafish embryos assessed as growth retardation at 50 ug/ml treated for 96 hrs post fertilization starting from 6 hrs post fertilization by inverted microscopic analysis relative to control; format: organism-based; details: in vivo
[7] = organism: Danio rerio; experiment: Toxicity in wild type zebrafish embryos assessed as growth retardation at 15 ug/ml treated for 96 hrs post fertilization starting from 6 hrs post fertilization by inverted microscopic analysis relative to control; format: organism-based; details: in vivo
[8] = organism: Danio rerio; experiment: Toxicity in wild type zebrafish embryos assessed as notochord at 15 ug/ml treated for 96 hrs post fertilization starting from 6 hrs post fertilization by inverted microscopic analysis relative to control; format: organism-based; details: in vivo
[9] = organism: Danio rerio; experiment: Toxicity in wild type zebrafish embryos assessed as eyes at 50 ug/ml treated for 96 hrs post fertilization starting from 6 hrs post fertilization by inverted microscopic analysis relative to control; format: organism-based; details: in vivo
[10] = organism: Danio rerio; experiment: Toxicity in wild type zebrafish embryos assessed as eyes at 15 ug/ml treated for 96 hrs post fertilization starting from 6 hrs post fertilization by inverted microscopic analysis relative to control; format: organism-based; details: in vivo
[11] = organism: Danio rerio; experiment: Toxicity in wild type zebrafish embryos assessed as otoliths at 50 ug/ml treated for 96 hrs post fertilization starting from 6 hrs post fertilization by inverted microscopic analysis relative to control; format: organism-based; details: in vivo
[12] = organism: Danio rerio; experiment: Toxicity in wild type zebrafish embryos assessed as otoliths at 15 ug/ml treated for 96 hrs post fertilization starting from 6 hrs post fertilization by inverted microscopic analysis relative to control; format: organism-based; details: in vivo
[13] = system: Danio rerio; experiment: Toxicity in wild type zebrafish embryos assessed as pericardial edema at 50 ug/ml treated for 96 hrs post fertilization starting from 6 hrs post fertilization by inverted microscopic analysis relative to control; format: organism-based; details: in vivo
[14] = system: Danio rerio; experiment: Toxicity in wild type zebrafish embryos assessed as pericardial edema at 15 ug/ml treated for 96 hrs post fertilization starting from 6 hrs post fertilization by inverted microscopic analysis relative to control; format: organism-based; details: in vivo
[15] = system: Danio rerio; experiment: Toxicity in wild type zebrafish embryos assessed as yolk edema at 50 ug/ml treated for 96 hrs post fertilization starting from 6 hrs post fertilization by inverted microscopic analysis relative to control; format: organism-based; details: in vivo
[16] = system: Danio rerio; experiment: Toxicity in wild type zebrafish embryos assessed as yolk edema at 15 ug/ml treated for 96 hrs post fertilization starting from 6 hrs post fertilization by inverted microscopic analysis relative to control; format: organism-based; details: in vivo
[17] = organism: Danio rerio; experiment: Toxicity in wild type zebrafish embryos assessed as heart beat at 50 ug/ml treated for 96 hrs post fertilization starting from 6 hrs post fertilization by inverted microscopic analysis relative to control; format: organism-based; details: in vivo
[18] = organism: Danio rerio; experiment: Toxicity in wild type zebrafish embryos assessed as heart beat at 15 ug/ml treated for 96 hrs post fertilization starting from 6 hrs post fertilization by inverted microscopic analysis relative to control; format: organism-based; details: in vivo
[19] = organism: Danio rerio; experiment: Toxicity in wild type zebrafish embryos assessed as blood circulation at 50 ug/ml treated for 96 hrs post fertilization starting from 6 hrs post fertilization by inverted microscopic analysis relative to control; format: organism-based; details: in vivo
[20] = organism: Danio rerio; experiment: Toxicity in wild type zebrafish embryos assessed as unhatched embryo at 50 ug/ml treated for 96 hrs post fertilization starting from 6 hrs post fertilization by inverted microscopic analysis relative to control; format: organism-based; details: in vivo
[21] = organism: Danio rerio; experiment: Toxicity in wild type zebrafish embryos assessed as unhatched embryo at 15 ug/ml treated for 96 hrs post fertilization starting from 6 hrs post fertilization by inverted microscopic analysis relative to control; format: organism-based; details: in vivo
[22] = organism: Danio rerio; experiment: Toxicity in wild type zebrafish embryos assessed as head malformation at 50 ug/ml treated for 96 hrs post fertilization starting from 6 hrs post fertilization by inverted microscopic analysis relative to control; format: organism-based; details: in vivo
[23] = organism: Danio rerio; experiment: Toxicity in wild type zebrafish embryos assessed as head malformation at 15 ug/ml treated for 96 hrs post fertilization starting from 6 hrs post fertilization by inverted microscopic analysis relative to control; format: organism-based; details: in vivo
[24] = organism: Danio rerio; experiment: Toxicity in wild type zebrafish embryos assessed as skeletal deformities at 50 ug/ml treated for 96 hrs post fertilization starting from 6 hrs post fertilization by inverted microscopic analysis relative to control; format: organism-based; details: in vivo
[25] = organism: Danio rerio; experiment: Toxicity in wild type zebrafish embryos assessed as skeletal deformities at 20 ug/ml treated for 96 hrs post fertilization starting from 6 hrs post fertilization by inverted microscopic analysis relative to control; format: organism-based; details: in vivo
[26] = molecular target: T1, Tyrosinase (Danio rerio) (UniProt A0A8M1PAD4); experiment: Inhibition of zebrafish embryo tyrosinase assessed as residual activity at 10 ug/ml after 48 hrs relative to control
T1 sequence (whole entry): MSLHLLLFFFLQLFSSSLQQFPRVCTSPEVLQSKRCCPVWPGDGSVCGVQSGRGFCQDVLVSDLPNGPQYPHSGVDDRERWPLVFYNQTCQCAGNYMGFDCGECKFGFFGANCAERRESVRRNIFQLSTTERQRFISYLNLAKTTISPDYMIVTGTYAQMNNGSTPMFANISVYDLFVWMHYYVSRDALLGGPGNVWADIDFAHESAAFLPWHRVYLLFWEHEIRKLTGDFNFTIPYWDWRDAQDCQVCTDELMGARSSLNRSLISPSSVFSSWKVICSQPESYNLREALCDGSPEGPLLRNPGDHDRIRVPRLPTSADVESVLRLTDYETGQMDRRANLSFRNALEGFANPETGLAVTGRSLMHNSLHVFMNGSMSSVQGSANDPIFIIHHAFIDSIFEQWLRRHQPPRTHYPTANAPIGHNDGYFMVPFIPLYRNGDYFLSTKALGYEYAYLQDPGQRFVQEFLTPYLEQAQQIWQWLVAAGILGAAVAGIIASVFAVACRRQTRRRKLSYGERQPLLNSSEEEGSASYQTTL

[27] = molecular target: T1, Tyrosinase (Danio rerio); experiment: Inhibition of zebrafish embryo tyrosinase assessed as residual activity at 5 ug/ml after 48 hrs relative to control
[28] = molecular target: T2, Tyrosinase (Danio rerio, UniProt A0A8M1PAD4); experiment: Inhibition of zebrafish embryo tyrosinase assessed as melanin production after 48 hrs
T2 sequence (A0A8M1PAD4 whole entry): T1 sequence (whole entry)

[29] = molecular target: T1, Tyrosinase (Danio rerio); experiment: Potency index, ratio of kojic acid IC50 to compound IC50 for zebrafish embryo tyrosinase assessed as residual activity
[30] = molecular target: T1, Tyrosinase (Danio rerio); experiment: Inhibition of zebrafish embryo tyrosinase assessed as melanin production at 20 ug/ml after 48 hrs relative to control; values are per cent of control
[31] = molecular target: T1, Tyrosinase (Danio rerio); experiment: Inhibition of zebrafish embryo tyrosinase assessed as melanin production at 10 ug/ml after 48 hrs relative to control; values are per cent of control

## O=c1cc(-c2ccccc2)c2c(O)cc(O)cc2o1
[1]
  Activity: Active
[2]
  Activity: Non-Toxic
[3]
  Activity: Non-Toxic
[4]
  Activity: Non-Toxic
[5]
  Activity: 100%
[6]
  Activity: 0%
[7]
  Activity: 0%
[8]
  Activity: 0%
[9]
  Activity: 0%
[10]
  Activity: 0%
[11]
  Activity: 0%
[12]
  Activity: 0%
[13]
  Activity: 5%
[14]
  Activity: 0%
[15]
  Activity: 0%
[16]
  Activity: 0%
[17]
  Activity: 0%
[18]
  Activity: 0%
[19]
  Activity: 0%
[20]
  Activity: 0%
[21]
  Activity: 0%
[22]
  Activity: 0%
[23]
  Activity: 0%
[24]
  Activity: 25%
[25]
  Activity: 0%
[26]
  Activity: 82%
[27]
  Activity: 95%
[28]
  IC50: 41.3 µM
[29]
  Ratio IC50: 86
[30]
  melanin content % of control: 37%
[31]
  melanin content % of control: 48%

## O=c1cc(-c2ccccc2)c2ccc(O)cc2o1
[1]
  Activity: Active
[2]
  Activity: Non-Toxic
[3]
  Activity: Non-Toxic
[4]
  Activity: Non-Toxic
[5]
  Activity: 100%
[6]
  Activity: 0%
[7]
  Activity: 0%
[8]
  Activity: 0%
[9]
  Activity: 0%
[10]
  Activity: 0%
[11]
  Activity: 0%
[12]
  Activity: 0%
[13]
  Activity: 0%
[14]
  Activity: 0%
[15]
  Activity: 0%
[16]
  Activity: 0%
[17]
  Activity: 0%
[18]
  Activity: 0%
[19]
  Activity: 0%
[20]
  Activity: 0%
[21]
  Activity: 0%
[22]
  Activity: 0%
[23]
  Activity: 0%
[24]
  Activity: 0%
[25]
  Activity: 0%
[26]
  Activity: 97%
[27]
  Activity: 99%
[28]
  IC50: 103 µM
[29]
  Ratio IC50: 41
[30]
  melanin content % of control: 61%
[31]
  melanin content % of control: 91%
